In US8604024B2, “Compounds for the reduction of beta-amyloid production” (Bristol-Myers Squibb Company, priority 2011, dated 2013):
Counter-ions that a name gives are not always drawn.

test system: Aβ1-42 production in H4 cells stably transfected with APP751 containing the Swedish mutation; test: Cellular assay for inhibition of Aβ1-42 production (H4 APP751 SWE clone 8.20); type: cell-based; conditions: 19 h, H4 APP751 SWE clone 8.20 cells, 19 h incubation; read-out: Aβ42 cellular IC50
Method: Cellular Assays for Inhibition of Aβ1-40 and Aβ1-42 Production
H4 cells stably transfected with APP751 containing the Swedish mutation (H4 APP751 SWE clone 8.20, developed at BMS) were maintained in log phase through twice weekly passage at a 1:20 split. […] Following incubation for 19 h in 5% CO2 at 37° C., plates were briefly centrifuged (1000 rpm, 5 min). A 10 μl aliquot from each well was transferred to a second assay plate (Costar 3709) for Aβ40 measurements. Antibody cocktails were freshly prepared by dilution into 40 mM Tris-HCl (pH 7.4) with 0.2% BSA and added to assay plates. For Aβ42 measurements, antibodies specific for the Aβ42 neoepitope (565, developed at BMS; conjugated to the Wallac reagent (Perkin Elmer)) and the N-terminal sequence of Aβ peptide (26D6, developed at SIBIA; conjugated to APC (Perkin Elmer)) were mixed and 20 μl of the mixture was added to each well of the incubated cell plate yielding a final concentration of 0.8 ng/well 565 and 75 ng/well 26D6. For the Aβ40 measurements, antibodies specific for the Aβ40 neoepitope (TSD, developed at BMS; conjugated to the Wallac reagent (Perkin Elmer)) and 26D6 as described above were mixed and 20 μl of the mixture was added to the 10 μl aliquots which had been removed previously from the cell plate yielding a final concentration of 1.6 ng/well TSD and 17.5 ng/well 26D6. Assay plates containing antibodies were sealed with aluminum foil and incubated overnight at 4° C. Signal was determined using a Viewlux counter (Perkin Elmer) and IC50 values determined using curve fitting in CurveMaster (Excel Fit based).

Row | SMILES | IC50 [µM]
1 | C[C@]12N=C(N)SC[C@H]1CCOc1ccc(Nc3nccc4ccccc34)cc12 (relative stereo) [Example 41, rel-(4aS,11bS)—N10-(Isoquinolin-1-yl)-11b-methyl-4a,5,6,11b-tetrahydro-4H-benzo[2,3]oxepino[4,5-d][1,3]thiazine-2,10-diamine, bis(2,2,2-trifluoroacetate)] | 16
2 | C[C@]12N=C(N)SC[C@H]1CCc1ccc(NC(=O)c3ncc(F)cc3F)cc12 (relative stereo) [Example 8, rel-N-((4aS,10bS)-2-Amino-10b-methyl-4a,5,6,10b-tetrahydro-4H-naphtho[1,2-d][1,3]thiazin-9-yl)-3,5-difluoropicolinamide, 2,2,2-trifluoroacetate] | 3.1
3 | C[C@]12N=C(N)SC[C@H]1CCOc1ccc(Nc3ncccc3Cl)cc12 (relative stereo) [Example 37, rel-(4aS,11bS)—N10-(3-Chloropyridin-2-yl)-11b-methyl-4a,5,6,11b-tetrahydro-4H-benzo[2,3]oxepino[4,5-d][1,3]thiazine-2,10-diamine, bis(2,2,2-trifluoroacetate)] | 1.4
4 | C[C@]12N=C(N)SC[C@H]1CCOc1ccc(-n3cccn3)cc12 (relative stereo) [Example 32, rel-(4aS,11bS)-11b-Methyl-10-(1H-pyrazol-1-yl)-4a,5,6,11b-tetrahydro-4H-benzo[2,3]oxepino[4,5-d][1,3]thiazin-2-amine, 2,2,2-trifluoroacetate] | 11
5 | Cc1ncc(-c2ccc3c(c2)[C@@]2(C)N=C(N)SC[C@H]2CCO3)s1 (relative stereo) [Example 26, rel-(4aS,11bS)-11b-Methyl-10-(2-methylthiazol-5-yl)-4a,5,6,11b-tetrahydro-4H-benzo[2,3]oxepino[4,5-d][1,3]thiazin-2-amine, 2,2,2-trifluoroacetate salt] | 8.5
6 | COc1cccc(-c2ccc3c(c2)[C@@]2(C)N=C(N)SC[C@H]2CCC3)c1 (relative stereo) [Example 12, rel-(4aS,11bS)-10-(3-methoxyphenyl)-11b-methyl-4,4a,5,6,7,11b-hexahydrobenzo[6,7]cyclohepta[1,2-d][1,3]thiazin-2-amine, 2,2,2-trifluoroacetate] | 3.4
7 | C[C@]12N=C(N)SC[C@H]1CCOc1ccc(-c3cncnc3)cc12 (relative stereo) [Example 27, rel-(4aS,11bS)-11b-methyl-10-(pyrimidin-5-yl)-4a,5,6,11b-tetrahydro-4H-benzo[2,3]oxepino[4,5-d][1,3]thiazin-2-amine, bis(2,2,2-trifluoroacetate)] | 2.9
8 | C[C@]12N=C(N)SC[C@H]1CCc1ccc(-c3cncnc3)cc12 (relative stereo) [Example 5, rel-(4aS,10bS)-10b-Methyl-9-(pyrimidin-5-yl)-4a,5,6,10b-tetrahydro-4H-naphtho[1,2-d][1,3]thiazin-2-amine, bis(2,2,2-trifluoroacetate)] | 4.6
9 | COc1ccnc(Nc2ccc3c(c2)[C@@]2(C)N=C(N)SC[C@H]2CCO3)n1 (relative stereo) [Example 42, rel-(4aS,11bS)—N10-(4-Methoxypyrimidin-2-yl)-11b-methyl-4a,5,6,11b-tetrahydro-4H-benzo[2,3]oxepino[4,5-d][1,3]thiazine-2,10-diamine, bis(2,2,2-trifluoroacetate)] | 1.5
10 | C[C@]12N=C(N)SC[C@H]1CCc1ccc(Br)cc12 (relative stereo) [Example 10, rel-(4aS,10bS)-9-Bromo-10b-methyl-4a,5,6,10b-tetrahydro-4H-naphtho[1,2-d][1,3]thiazin-2-amine] | 13
11 | C[C@]12N=C(N)SC[C@H]1COc1cc(F)c(-c3cncnc3)cc12 (relative stereo) [Example 17, rel-(4aR,10bS)-8-Fluoro-10b-methyl-9-(pyrimidin-5-yl)-4,4a,5,10b-tetrahydrochromeno[4,3-d][1,3]thiazin-2-amine, bis(2,2,2-trifluoroacetate)] | 3.2
12 | NC1=N[C@H]2c3cc(-c4cncnc4)ccc3CCC[C@H]2CS1 [Example 1b, (4aR,11bR)-10-Pyrimidin-5-yl-4,4a,5,6,7,11b-hexahydro-3-thia-1-aza-dibenzo[a,c]cyclohepten-2-ylamine] | 28
13 | C[C@]12N=C(N)SC[C@H]1CCOc1ccc(Nc3ncnc4ccccc34)cc12 (relative stereo) [Example 40, rel-(4aS,11bS)-11b-Methyl-N10-(quinazolin-4-yl)-4a,5,6,11b-tetrahydro-4H-benzo[2,3]oxepino[4,5-d][1,3]thiazine-2,10-diamine, bis(2,2,2-trifluoroacetate)] | 15
14 | Cc1cc(-c2ccc3c(c2)[C@@]2(C)N=C(N)SC[C@H]2CC3)n(C)n1 (relative stereo) [Example 20, rel-(4aS,10bS)-9-(1,3-Dimethyl-1H-pyrazol-5-yl)-10b-methyl-4a,5,6,10b-tetrahydro-4H-naphtho[1,2-d][1,3]thiazin-2-amine, bis(2,2,2-trifluoroacetate)] | > 30
15 | C[C@]12N=C(N)SC[C@H]1CCc1ccc(NC(=O)c3ccc(Cl)cn3)cc12 (relative stereo) [Example 7, rel-N-((4aS,10bS)-2-Amino-10b-methyl-4a,5,6,10b-tetrahydro-4H-naphtho[1,2-d][1,3]thiazin-9-yl)-5-chloropicolinamide, 2,2,2-trifluoroacetate] | 1.1
16 | C[C@]12N=C(N)SC[C@H]1CCc1ccc(-c3cncc(Cl)c3)cc12 (relative stereo) [Example 6, rel-(4aS,10bS)-9-(5-Chloropyridin-3-yl)-10b-methyl-4a,5,6,10b-tetrahydro-4H-naphtho[1,2-d][1,3]thiazin-2-amine bis(2,2,2-trifluoroacetate)] | 2.6
17 | C[C@]12N=C(N)SC[C@H]1COc1cc(F)c(NC(=O)c3ccc(Cl)cn3)cc12 (relative stereo) [Example 18, rel-N-((4aR,10bS)-2-Amino-8-fluoro-10b-methyl-4,4a,5,10b-tetrahydrochromeno[4,3-d][1,3]thiazin-9-yl)-5-chloropicolinamide, 2,2,2-trifluoroacetate] | 6.1
18 | C[C@]12N=C(N)SC[C@H]1CCOc1ccc(-c3cn[nH]c3)cc12 (relative stereo) [Example 24, rel-(4aS,11bS)-11b-methyl-10-(1H-pyrazol-4-yl)-4a,5,6,11b-tetrahydro-4H-benzo[2,3]oxepino[4,5-d][1,3]thiazin-2-amine, bis(2,2,2-trifluoroacetate)] | 8.1

Other lines, results leading:

Row | IC50 [µM] | SMILES
19 | 3.5 | C[C@@]12N=C(N)SC[C@@H]1CCc1ccc(NC(=O)c3ccc(Cl)cn3)cc12 [Example 7a, N-((4aR,10bR)-2-Amino-10b-methyl-4a,5,6,10b-tetrahydro-4H-naphtho[1,2-d][1,3]thiazin-9-yl)-5-chloropicolinamide]
20 | 0.017 | C[C@]12N=C(N)SC[C@H]1CCOc1ccc(NC(=O)c3ccc(F)cn3)cc12 [Example 36a, N-((4aS,11bS)-2-Amino-11b-methyl-4a,5,6,11b-tetrahydro-4H-benzo[2,3]oxepino[4,5-d][1,3]thiazin-10-yl)-5-fluoropicolinamide]
21 | 10 | C[C@@]12N=C(N)SC[C@@H]1CCOc1ccc(NC(=O)c3ccc(F)cn3)cc12 [Example 36b, N-((4aR,11bR)-2-Amino-11b-methyl-4a,5,6,11b-tetrahydro-4H-benzo[2,3]oxepino[4,5-d][1,3]thiazin-10-yl)-5-fluoropicolinamide]
22 | 0.12 | C[C@]12N=C(N)SC[C@H]1CCCc1ccc(NC(=O)c3ccc(F)cn3)cc12 [Example 43b, N-((4aS,11bS)-2-Amino-11b-methyl-4,4a,5,6,7,11b-hexahydrobenzo[6,7]cyclohepta[1,2-d][1,3]thiazin-10-yl)-5-fluoropicolinamide]
23 | 1.4 | CC#Cc1cncc(-c2ccc3c(c2)[C@@]2(C)N=C(N)SC[C@H]2CCO3)c1 [Example 22b, (4aS,11bS)-11b-Methyl-10-(5-(prop-1-yn-1-yl)pyridin-3-yl)-4a,5,6,11b-tetrahydro-4H-benzo[2,3]oxepino[4,5-d][1,3]thiazin-2-amine]
24 | 0.92 | C[C@@]12N=C(N)SC[C@@H]1CCCc1ccc(NC(=O)c3ncc(Cl)cc3Cl)cc12 [Example 45b, N-((4aR,11bR)-2-Amino-11b-methyl-4,4a,5,6,7,11b-hexahydrobenzo[6,7]cyclohepta[1,2-d][1,3]thiazin-10-yl)-3,5-dichloropicolinamide]
25 | 0.0088 | C[C@]12N=C(N)SC[C@H]1CCCc1ccc(NC(=O)c3ccc(Cl)cn3)cc12 [Example 3a, 5-Chloro-pyridine-2-carboxylic acid ((4aS,11bS)-2-amino-11b-methyl-4,4a,5,6,7,11b-hexahydro-3-thia-1-aza-dibenzo[a,c]cyclohepten-10-yl)-amide]
26 | 8.2 | CC#Cc1cncc(-c2ccc3c(c2)[C@]2(C)N=C(N)SC[C@@H]2CCO3)c1 [Example 22a, (4aR,11bR)-11b-Methyl-10-(5-(prop-1-yn-1-yl)pyridin-3-yl)-4a,5,6,11b-tetrahydro-4H-benzo[2,3]oxepino[4,5-d][1,3]thiazin-2-amine]
